Experimental data published in patent US6455076B1, “Formulations and methods for reducing skin irritation” (priority 1994, dated 2002).
Where two headings read alike, the source gives them in different places.

How the values were obtained:
skin irritation = assay: Cation salts formulated in commercial topical cosmetic product, inhibition of skin irritation; type: in vivo; conditions: various amounts combined with Elizabeth Arden Visible Difference Refining Toner (alcohol-containing solution)
Source text: Cation salts of the invention were formulated at various concentrations in various commercially available topical cosmetic products.

[1] = test system: skin irritation caused by lactic acid; type: in vivo, human; conditions: for average inhibition of cumulative irritation (Percent Inhibition): cation salt 250 mM in 7.5% lactic acid irritant composition, applied to face, vs equimolar sodium chloride control, average over trials; for Percent Inhibition (cumulative irritation): representative panels, cation 250 mM, 7.5% lactic acid; for Percent Inhibition (cumulative irritation), dose-response: lactic acid irritation protocol
Experimental: The trials were conducted in a double blind, randomized, vehicle-controlled manner. Various formulations of the invention were tested in over 150 people.
Tests were conducted in multiple panels of from 7 to 12 subjects each. Subjects were instructed not to wear any makeup or facial lotions to the clinic the day of testing. T he subjects were instructed to wash their face with Ivory bar soap in the clinic prior to application of test solutions.
Lactic acid skin-irritant compositions were formulated in an appropriate vehicle prior to application to the skin of the subjects. […] […] The test formulation was applied to a defined portion of the subject's skin, typically the face. Controls were performed by applying a corresponding formulation with an equimolar amount of sodium chloride to a contralateral portion of the subject's skin.
All test solutions (including controls) were applied in a double blind, randomized fashion using the prepared solutions as previously placed in coded vial designated for use on either the right or left side of the face (or other test area). Solutions were typically applied using a cotton swab (six strokes) or sponge applicator to the face and cheek area extending from the midline of the nose over to the center of the cheek and from the cheek bone down to the jaw line. Application was made first to the right side and then to the left.
Sensory assessment scores were recorded for each treated side of the subject's skin every minute for 15 minutes or until three consecutive scores of “zero” irritation were obtained. The following scaled scores were used for sensory assessment:
Symptom scores were cumulated, separately for the cation-treated and control-treated areas, for each individual and also for the panel as a whole. Individuals not reporting a cumulative score of at least “7” on at least one treatment area were excluded (in a blinded fashion) from further analysis in order to ascertain anti-irritant efficacy with respect to the more severely-susceptible test subjects. From a practical standpoint, scores of “0” and “1” on the above scale would be considered highly desirable for a commercial product because such a response would likely not result in a consumer ceasing to use a product. Some consumers, in fact, might view the “barely perceptible” sensations represented by a score of 1 to be an indication that a facial treatment skin care product (especially an exfoliant) was working as advertised. By contrast, irritation scores of “2”, “3” and “4” would likely often result in a consumer never purchasing the product again.

[2] = topical application, lactic acid induced stinging, burning, tingling, itching, erythema

Row | Compound | inhibition of skin irritation (in words) (skin irritation) | average inhibition of cumulative irritation (Percent Inhibition) [1] [%] | Percent Inhibition (cumulative irritation) ([1]; vehicle 10% EtOH) [%] | anti-irritant activity in clinical trials (in words) [1, 2] | other results
1 | [Cl][Al]([Cl])[Cl] [Aluminum chloride, aluminum chloride] | effective to inhibit skin irritation | 46 | 43 | particularly active as anti-irritants | Percent Inhibition (cumulative irritation), dose-response ([1]; salt concentration 31 mM): 12%; Percent Inhibition (cumulative irritation), dose-response ([1]; salt concentration 62 mM): 54%; Percent Inhibition (cumulative irritation), dose-response ([1]; salt concentration 125 mM): 50%; Percent Inhibition (cumulative irritation), dose-response ([1]; salt concentration 250 mM): 42%; Percent Inhibition (cumulative irritation), dose-response ([1]; salt concentration 500 mM): 44%
2 | [F][Sn][F] [Stannous fluoride, stannous fluoride] | effective to inhibit skin irritation | 15 | 17 | – | –
3 | O=[N+]([O-])[O-].O=[N+]([O-])[O-].[Sn+2] [stannous nitrate] | – | – | – | – | anti-irritant activity in clinical trials (in words) ([1]; human, in vivo): particularly active as anti-irritants
4 | [Sn+2] [tin(II) (Sn^2+), tin(II)] | – | – | – | effective | –
5 | stannous chloride | – | 50 | – | particularly active as anti-irritants | anti-irritant efficacy in panel test (FIGS. 1-4, in words) ([1]; 250 mM, one panel, time course and cumulative irritation): overall efficacy of the subject formulation is clear; Percent Inhibition (cumulative irritation) ([1]; vehicle 33.75% H2O/33.75% Gly/25% EtOH): 50%
